Measurements: PubChem BioAssay AID270 (DTP/NCI, 2004)
“And” between values parts separate entries of the source, which are not always exact repeats. Identical values can stand only once. Inconclusive results are not listed.

System: BDF1 mice, s.c. Lewis lung carcinoma, T/C %
Experiment: NCI In Vivo Anticancer Drug Screen. Data for tumor model Lewis Lung Carcinoma (subcutaneous) in B6D2F1 (BDF1) mice
Outline: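 Tumor-bearing mice were treated with test compound, and either survival or tumor size was recorded. Values are the treated-group measurement divided by that of the vehicle-treated control group.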

[1] = endpoint: median survival time, dose: 6.0 mg/kg/injection, schedule: Q01DX009 (ip), vehicle: Klucel (hydroxypropylcellulose) (HPC), higher = longer survival
[2] = endpoint: mean tumor weight, dose: 50.0 mg/kg/injection, schedule: Q01DX011 (ip), vehicle: carboxymethylcellulose (CMC), higher = larger tumour

CC(=O)[O][Hg][c]1c(C)c(C)c(C)c(C)c1C
T/C (endpoint: median survival time, dose: 0.62 mg/kg/injection, schedule: Q01DX009 (ip), vehicle: Klucel (hydroxypropylcellulose) (HPC), higher = longer survival): 93 % of control | T/C (endpoint: median survival time, dose: 1.25 mg/kg/injection, schedule: Q01DX009 (ip), vehicle: Klucel (hydroxypropylcellulose) (HPC), higher = longer survival): 93 % of control | T/C (endpoint: median survival time, dose: 2.5 mg/kg/injection, schedule: Q01DX009 (ip), vehicle: Klucel (hydroxypropylcellulose) (HPC), higher = longer survival): 100 % of control | T/C (endpoint: median survival time, dose: 5.0 mg/kg/injection, schedule: Q01DX009 (ip), vehicle: Klucel (hydroxypropylcellulose) (HPC), higher = longer survival): 105 % of control | T/C [1]: 92 % of control | T/C (endpoint: median survival time, dose: 6.25 mg/kg/injection, schedule: Q01DX009 (ip), vehicle: Klucel (hydroxypropylcellulose) (HPC), higher = longer survival): 92 % of control

CCCCCCCCCCCCCCCCC(C(=O)O)C(O)(CC(=O)O)C(=O)O (stereo not given)
T/C (endpoint: mean tumor weight, dose: 22.0 mg/kg/injection, schedule: Q01DX011 (ip), vehicle: carboxymethylcellulose (CMC), higher = larger tumour): 64 % of control | T/C (endpoint: mean tumor weight, dose: 35.0 mg/kg/injection, schedule: Q01DX011 (ip), vehicle: carboxymethylcellulose (CMC), higher = larger tumour): 68 % of control | T/C [2]: 46 % of control

C1CCNC1
T/C (endpoint: mean tumor weight, dose: 1.56 mg/kg/injection, schedule: Q01DX011 (ip), vehicle: saline, higher = larger tumour): 65 % of control | T/C (endpoint: mean tumor weight, dose: 3.13 mg/kg/injection, schedule: Q01DX011 (ip), vehicle: saline, higher = larger tumour): 87 % of control | T/C (endpoint: mean tumor weight, dose: 6.25 mg/kg/injection, schedule: Q01DX011 (ip), vehicle: saline, higher = larger tumour): 117 % of control | T/C (endpoint: mean tumor weight, dose: 25.0 mg/kg/injection, schedule: Q01DX011 (ip), vehicle: saline, higher = larger tumour): 73 % of control | T/C (endpoint: mean tumor weight, dose: 50.0 mg/kg/injection, schedule: Q01DX011 (ip), vehicle: saline, higher = larger tumour): 67 % of control

Cc1cc(C)c(NC(=O)N(CCCl)N=O)cc1C
T/C (endpoint: mean tumor weight, dose: 25.0 mg/kg/injection, schedule: Q01DX001 (ip), vehicle: carboxymethylcellulose (CMC), higher = larger tumour): 80 % of control | T/C (endpoint: mean tumor weight, dose: 50.0 mg/kg/injection, schedule: Q01DX001 (ip), vehicle: carboxymethylcellulose (CMC), higher = larger tumour): 82 % of control | T/C (endpoint: median survival time, dose: 12.5 mg/kg/injection, schedule: Q01DX009 (ip), vehicle: other, higher = longer survival): 98 % of control | T/C (endpoint: median survival time, dose: 25.0 mg/kg/injection, schedule: Q01DX009 (ip), vehicle: other, higher = longer survival): 98 % of control | T/C (endpoint: median survival time, dose: 50.0 mg/kg/injection, schedule: Q01DX009 (ip), vehicle: other, higher = longer survival): 87 % of control

O=C(Nc1ccc2c(c1)Cc1cccc(NC(=O)C(Cl)Cl)c1-2)C(Cl)Cl
T/C (endpoint: mean tumor weight, dose: 45.0 mg/kg/injection, schedule: Q01DX011 (ip), vehicle: carboxymethylcellulose (CMC), higher = larger tumour): 72 % of control

CC1CCC[N-]C1.CC1CCC[N-]C1.CC1CCC[N-]C1.CC1CCC[N-]C1.[Cl][Rh][Cl] (stereo not given)
T/C (endpoint: median survival time, dose: 3.0 mg/kg/injection, schedule: Q01DX009 (ip), vehicle: Klucel (hydroxypropylcellulose) (HPC), higher = longer survival): 102 % of control | T/C [1]: 91 % of control

COC(=O)C1=C(C(=O)OC)C2CC3C4CC=C5CC(OC(C)=O)CCC5(C)C4CCC3(C)C2=C(OC(C)=O)C1 (stereo not given)
T/C (endpoint: mean tumor weight, dose: 62.5 mg/kg/injection, schedule: Q01DX011 (sc), vehicle: saline, higher = larger tumour): 105 % of control | T/C (endpoint: mean tumor weight, dose: 125.0 mg/kg/injection, schedule: Q01DX011 (sc), vehicle: saline, higher = larger tumour): 99 % of control | T/C (endpoint: mean tumor weight, dose: 250.0 mg/kg/injection, schedule: Q01DX011 (sc), vehicle: saline, higher = larger tumour): 97 % of control

O=P(N1CCOCC1)(N1CC1)N1CC1
T/C (endpoint: median survival time, dose: 0.78 mg/kg/injection, schedule: Q01DX009 (ip), vehicle: saline, higher = longer survival): 100 % of control | T/C (endpoint: median survival time, dose: 1.56 mg/kg/injection, schedule: Q01DX009 (ip), vehicle: saline, higher = longer survival): 124 % of control | T/C (endpoint: median survival time, dose: 3.12 mg/kg/injection, schedule: Q01DX009 (ip), vehicle: saline, higher = longer survival): 100 % of control | T/C (endpoint: median survival time, dose: 3.13 mg/kg/injection, schedule: Q01DX009 (ip), vehicle: saline, higher = longer survival): 113 % of control | T/C (endpoint: median survival time, dose: 6.25 mg/kg/injection, schedule: Q01DX009 (ip), vehicle: saline, higher = longer survival): 97 % of control and 110 % of control | T/C (endpoint: median survival time, dose: 25.0 mg/kg/injection, schedule: Q01DX009 (ip), vehicle: saline, higher = longer survival): 107 % of control

COC12C(COC(N)=O)C3=C(C(=O)C(C)=C(N)C3=O)N1CC1C2N1C (stereo not given)
T/C (endpoint: median survival time, dose: 2.0 mg/kg/injection, schedule: Q01DX011 (ip), vehicle: other, higher = longer survival): 98 % of control | T/C (endpoint: median survival time, dose: 4.0 mg/kg/injection, schedule: Q01DX011 (ip), vehicle: other, higher = longer survival): 96 % of control

CC(=O)OC(C)(C)/C=C/C(=O)[C@](C)(O)[C@H]1[C@H](O)C[C@@]2(C)[C@@H]3CC=C4[C@@H](C[C@H](O)C(=O)C4(C)C)[C@]3(CO)C(=O)C[C@]12C
T/C (endpoint: mean tumor weight, dose: 0.57 mg/kg/injection, schedule: Q01DX011 (ip), vehicle: saline, higher = larger tumour): 93 % of control

c1ccc2cc3c(cc2c1)Cn1c-3nc2ccccc21
T/C [2]: 64 % of control | T/C (endpoint: mean tumor weight, dose: 55.0 mg/kg/injection, schedule: Q01DX011 (ip), vehicle: carboxymethylcellulose (CMC), higher = larger tumour): 33 % of control and 48 % of control | T/C (endpoint: mean tumor weight, dose: 80.0 mg/kg/injection, schedule: Q01DX011 (ip), vehicle: carboxymethylcellulose (CMC), higher = larger tumour): 52 % of control | T/C (endpoint: mean tumor weight, dose: 100.0 mg/kg/injection, schedule: Q01DX011 (ip), vehicle: carboxymethylcellulose (CMC), higher = larger tumour): 23 % of control | T/C (endpoint: mean tumor weight, dose: 120.0 mg/kg/injection, schedule: Q01DX011 (ip), vehicle: carboxymethylcellulose (CMC), higher = larger tumour): 26 % of control | T/C (endpoint: mean tumor weight, dose: 180.0 mg/kg/injection, schedule: Q01DX011 (ip), vehicle: carboxymethylcellulose (CMC), higher = larger tumour): 34 % of control | T/C (endpoint: mean tumor weight, dose: 200.0 mg/kg/injection, schedule: Q01DX011 (ip), vehicle: carboxymethylcellulose (CMC), higher = larger tumour): 37 % of control | T/C (endpoint: mean tumor weight, dose: 400.0 mg/kg/injection, schedule: Q01DX011 (ip), vehicle: carboxymethylcellulose (CMC), higher = larger tumour): 38 % of control

CCCCSc1nc(N)nc2c1ncn2CC(C)CC (stereo not given)
T/C (endpoint: mean tumor weight, dose: 75.0 mg/kg/injection, schedule: Q01DX011 (ip), vehicle: other, higher = larger tumour): 103 % of control | T/C (endpoint: mean tumor weight, dose: 150.0 mg/kg/injection, schedule: Q01DX011 (ip), vehicle: other, higher = larger tumour): 50 % of control | T/C (endpoint: mean tumor weight, dose: 300.0 mg/kg/injection, schedule: Q01DX011 (ip), vehicle: other, higher = larger tumour): 53 % of control

O=c1cc[nH]c(=O)o1
T/C (endpoint: median survival time, dose: 1.5 mg/kg/injection, schedule: Q01DX009 (ip), vehicle: water, higher = longer survival): 102 % of control | T/C (endpoint: median survival time, dose: 3.0 mg/kg/injection, schedule: Q01DX009 (ip), vehicle: water, higher = longer survival): 95 % of control | T/C (endpoint: median survival time, dose: 3.12 mg/kg/injection, schedule: Q01DX008 (ip), vehicle: water, higher = longer survival): 93 % of control | T/C (endpoint: median survival time, dose: 3.12 mg/kg/injection, schedule: Q01DX009 (ip), vehicle: water, higher = longer survival): 114 % of control | T/C (endpoint: median survival time, dose: 6.0 mg/kg/injection, schedule: Q01DX009 (ip), vehicle: water, higher = longer survival): 94 % of control | T/C (endpoint: median survival time, dose: 6.25 mg/kg/injection, schedule: Q01DX008 (ip), vehicle: water, higher = longer survival): 118 % of control | T/C (endpoint: median survival time, dose: 6.25 mg/kg/injection, schedule: Q01DX009 (ip), vehicle: water, higher = longer survival): 108 % of control and 243 % of control | T/C (endpoint: median survival time, dose: 12.0 mg/kg/injection, schedule: Q01DX009 (ip), vehicle: water, higher = longer survival): 106 % of control and 108 % of control | T/C (endpoint: median survival time, dose: 12.5 mg/kg/injection, schedule: Q01DX008 (ip), vehicle: water, higher = longer survival): 114 % of control | T/C (endpoint: median survival time, dose: 12.5 mg/kg/injection, schedule: Q01DX009 (ip), vehicle: water, higher = longer survival): 103 % of control and 243 % of control | T/C (endpoint: median survival time, dose: 24.0 mg/kg/injection, schedule: Q01DX009 (ip), vehicle: water, higher = longer survival): 98 % of control and 116 % of control | T/C (endpoint: median survival time, dose: 25.0 mg/kg/injection, schedule: Q01DX008 (ip), vehicle: water, higher = longer survival): 112 % of control | T/C (endpoint: median survival time, dose: 25.0 mg/kg/injection, schedule: Q01DX009 (ip), vehicle: water, higher = longer survival): 107 % of control

O=C(O)CCc1c[nH]c2ccc(N(CCCl)CCCl)cc12
T/C (endpoint: mean tumor weight, dose: 0.7 mg/kg/injection, schedule: Q01DX011 (ip), vehicle: carboxymethylcellulose (CMC), higher = larger tumour): 74 % of control | T/C (endpoint: mean tumor weight, dose: 1.5 mg/kg/injection, schedule: Q01DX011 (ip), vehicle: carboxymethylcellulose (CMC), higher = larger tumour): 79 % of control | T/C (endpoint: mean tumor weight, dose: 3.0 mg/kg/injection, schedule: Q01DX011 (ip), vehicle: carboxymethylcellulose (CMC), higher = larger tumour): 51 % of control

ClCC[N-]CC[N-]CCCl.ClCC[N-]CC[N-]CCCl.[O-][Cl+3]([O-])([O-])O.[Zn+2]
T/C (endpoint: median survival time, dose: 5.0 mg/kg/injection, schedule: Q01DX009 (ip), vehicle: saline with Tween-80, higher = longer survival): 101 % of control | T/C (endpoint: median survival time, dose: 10.0 mg/kg/injection, schedule: Q01DX009 (ip), vehicle: saline with Tween-80, higher = longer survival): 101 % of control | T/C (endpoint: median survival time, dose: 20.0 mg/kg/injection, schedule: Q01DX009 (ip), vehicle: saline with Tween-80, higher = longer survival): 105 % of control | T/C (endpoint: median survival time, dose: 40.0 mg/kg/injection, schedule: Q01DX009 (ip), vehicle: saline with Tween-80, higher = longer survival): 99 % of control

CCNC1=C(N2CC2)C(=O)C(NCC)=C(N2CC2)C1=O
T/C (endpoint: median survival time, dose: 0.37 mg/kg/injection, schedule: Q01DX009 (ip), vehicle: saline, higher = longer survival): 115 % of control | T/C (endpoint: median survival time, dose: 0.75 mg/kg/injection, schedule: Q01DX009 (ip), vehicle: saline, higher = longer survival): 121 % of control

CC(=O)C(O)N1C(=O)C=CC1=O (stereo not given)
T/C (endpoint: median survival time, dose: 0.31 mg/kg/injection, schedule: Q01DX009 (ip), vehicle: saline, higher = longer survival): 100 % of control | T/C (endpoint: median survival time, dose: 0.62 mg/kg/injection, schedule: Q01DX009 (ip), vehicle: saline, higher = longer survival): 98 % of control and 105 % of control and 119 % of control | T/C (endpoint: median survival time, dose: 1.25 mg/kg/injection, schedule: Q01DX009 (ip), vehicle: saline, higher = longer survival): 107 % of control (2×) and 120 % of control | T/C (endpoint: median survival time, dose: 1.25 mg/kg/injection, schedule: Q02DX009 (ip), vehicle: saline, higher = longer survival): 114 % of control | T/C (endpoint: median survival time, dose: 2.5 mg/kg/injection, schedule: Q01DX009 (ip), vehicle: saline, higher = longer survival): 90 % of control and 107 % of control | T/C (endpoint: median survival time, dose: 2.5 mg/kg/injection, schedule: Q02DX009 (ip), vehicle: saline, higher = longer survival): 104 % of control | T/C (endpoint: median survival time, dose: 5.0 mg/kg/injection, schedule: Q01DX009 (ip), vehicle: saline, higher = longer survival): 97 % of control and 100 % of control and 120 % of control | T/C (endpoint: median survival time, dose: 5.0 mg/kg/injection, schedule: Q02DX009 (ip), vehicle: saline, higher = longer survival): 105 % of control
